Legend:
[1] = system: primary neuron (neuron, astrocyte and microglia) prepared from brain cortex of a rat fetus; assay: Hydrogen peroxide disorder in primary neuron; assay type: cell-based; conditions: concrete data not shown
Description: Though concrete data is not shown, using primary neuron (neuron, astrocyte and microglia) prepared from brain cortex of a rat fetus in place of PC12-HS cells, the influence of NK-4, NK-26, NK-234, NK-19 and NK-150 on amyloid β fragment disorder and hydrogen peroxide disorder was investigated.

[2] = system: ICR mice injected with amyloid β fragment; assay: Novelty object recognition test, mouse injected with amyloid β fragment (Alzheimer's dementia model); assay type: in vivo; conditions: for adverse effect / novelty object recognition test (in words): mice injected with amyloid β fragment; for adverse effect: i.p. once a day over 13 days; for novelty object recognition test (in words): vs amyloid β fragment alone; for Index for object discrimination: mouse administered with amyloid β fragment
Procedure: One hundred of ICR mice (male, five weeks of age, body weight of 25 to 30 g, commercialized by Charles Liver Laboratories Japan Inc., Kanagawa, Japan) were randomly divided into 10 groups, each consisting 10 heads, and raised separately until the experiment was terminated. […] A micro syringe with an […] stainless needle (3 mm length) was used for injection. The injection site was determined by confirming the staining at right-and-left lateral ventricles of the frontal section, dorsal third ventricle, and ventral third ventricle by injecting an Evans' Blue solution (0.3 μg/0.3 μl) in place of the solution of amyloid β fragment.
The test, which consists of three parts of acclimation, practicing trial, and holding trial, was operated at six to eight days after administering amyloid β fragment into the subjects' ventricles. The experiment apparatus (40 cm in depth, 30 cm in width and 30 cm in height), in which the floor was paved with wood tips, was placed in a noiseless place under an illumination of about 1,000 lux. On the 6th day after the administration, a mouse was placed in the center of the apparatus without seeking object and allowed to seek freely for 10 minutes (acclimation). After 24 hours (on the 7th day after the administration), two objects (objects A and B) were placed in the apparatus at a position 10-cm apart from the lateral side, and the mouse was placed in the center of the apparatus and allowed to seek freely for 10 minutes (practicing trial). After 24 hours (on 8th day after the administration), object A (memorized object) sought by the mouse on the previous day was placed at the same position of object A as placed on the previous day, and object C (novel object) different from object B used on the previous day […] of object B as placed on the previous day, and then the mouse was placed in the center of the apparatus and allowed to seek freely for 10 minutes (holding trial). When the mouse directed its muffle close to the object within 2 cm apart from the object or allowed its muffle to contact with the object, the mouse was judged to be seeking, and the seeking time thereof was measured with a stopwatch. The object discrimination index [={(seeking time for novel object)−(seeking time for memorized object)}/{(seeking time for novel object)+(seeking time for memorized object)}] was calculated. The object discrimination index means the ratio of increase in seeking time for novel object to the total seeking time, which becomes longer when the memory of the once sought object is more strongly held and becomes shorter when the memory is more weakly held.

[3] = system: brain ischemia rat; assay: Brain ischemia (cerebral infarction model) rat: behavioral score; assay type: in vivo; design: Behavioral score: scale not given here; conditions: for behavioral score (in words): Experiment 13, cerebral-infarction-model rat, administered through caudal vein
Procedure: Male SD rats, seven- to eight-weeks of age and 280 to 330 g body weight, commercialized by Charles River Laboratories Japan Inc., Kanagawa, Japan, were allocated randomly into seven groups, consisting of five to seven rats in each group. Among the seven groups, five groups were subjected to the following surgery as test groups: Rats in the test groups were subcutaneously administered with 0.3 mg/kg body weight of atropine, commercialized by Fuso Pharmaceutical industries, Osaka, Japan. Successively, each rat was anesthetized by administrating 600 mg/kg body weight of urethane, commercialized by Sigma-Aldrich Co., MO, USA, and 60 mg/kg-weight of […], commercialized by Sigma-Aldrich Co., MO, USA, into the peritoneal cavity, and fixed to a fixator under voluntary breathing conditions. The right carotid artery bifurcation was exposed by median incision of the neck without damaging vagus nerve. The common carotid artery and external carotid artery around the right carotid artery bifurcation were exfoliated from surrounding connective tissue and wired respectively using “NESCOSUTURE”, a 6-0 nylon string commercialized by Alfresa Pharma Corporation, Osaka, Japan. Then, the internal carotid artery was tied with the 6-0 nylon string for fixation after insertion of an obturator. Successively, the common carotid artery was incised and a silicon-coated obturator, prepared by a 4-0 nylon string, commercialized by Doccol Corp., CA, USA, was inserted from the common carotid artery into the internal carotid artery at a distance of about 16 mm, and clipped to the common carotid artery (see, for example, Koizumi et al., Cerebral stroke, Vol. 8, No. 1, pp. 1-8 (1986)). By the method, the silicon-coated tip of obturator was inserted through the right carotid artery bifurcation to frontal cerebral artery at a distance of about 2 mm and obstructs the inlet of the medial cerebral artery. After two hours occlusion of the medial cerebral artery while keeping the rat on an isothermal pad controlled at a temperature of 37° C., blood was allowed to reperfuse by withdrawing the obturator. Then, the internal carotid artery was tied near the carotid artery bifurcation for preventing the bleeding from the incised part of the common carotid artery. In the model, the blood was reperfused through the left carotid artery, vertebral artery, basilar artery, frontal and backward communication artery because the right carotid artery was clipped.
NK-4, NK-19, NK-53, NK-100, and NK-557, used in the test, were respectively dissolved in DMSO (product No. “D8418”, commercialized by Sigma-Aldrich Co., MO, USA) to give a concentration of 5 mg/ml and filtrated using “MILLEX-LG SLLG025SS”, a DMSO-resistant membrane filter commercialized by Millipore, MA, USA. Stock […], and then 4 ml/kg body weight of any of the resulting diluted solutions was administered ([…]) to five test groups (test groups 1 to 5) consisting of five or seven rats, through their caudal veins at both after one hour from the occlusion of middle cerebral artery and immediately after initiating reperfusion. After 24 hours from the reperfusion of blood, behavioral and histological evaluations of rats were carried out according to the following procedures: As a control group 1, five rats in one group out of the remaining two groups were subjected to the same surgery as the rats in the test groups 1 to 5, and administered with 4 ml/kg body weight of PBS free of any of the compounds through their caudal veins at both after one hour of the medial cerebral artery occlusion and immediately after the start of reperfusion. As the control group 2, six rats in the remaining one group were subjected to a sham surgery, in which common, external, and internal carotid arteries were clipped and then reperfused their blood without inserting the obturator to each medial cerebral artery. […]

[4] = 500 μg/kg body weight i.p. once a day
[5] = brain ischemia rats (embolus, 2 h occlusion, reperfusion), 100 p g/kg body weight via caudal vein 1 h after occlusion and at reperfusion, 24 hours after reperfusion, maximum score 6
[6] = embolus rat, dose 100 μg per kg body weight, caudal vein

SMILES: CCN1C=CC(=CC=C(C=Cc2cc[n+](CC)c3ccccc23)c2cc[n+](CC)c3ccccc23)c2ccccc21.[I-].[I-] [NK-4]
- suppressing hydrogen peroxide disorder [1]: actions of suppressing
- adverse effect [2]: No adverse effect
- novelty object recognition test (in words) [2, 4]: significant improvement
- Index for object discrimination ([2]; dose 50 μg/kg body weight): 0.15 ± 0.07
- Index for object discrimination ([2]; dose 500 μg/kg body weight): 0.41 ± 0.08
- behavioral score (in words) [3]: significantly improved
- Behavioral score [3, 5]: 2.9 ± 0.2
- Behavioral score ([3]; embolus rat, dose 25 μg per kg body weight, caudal vein): 4.5 ± 0.6
- Behavioral score ([3]; embolus rat, dose 50 μg per kg body weight, caudal vein): 3.3 ± 0.4
- Behavioral score [3, 6]: 2.6 ± 0.2
- Behavioral score ([3]; embolus rat, dose 200 μg per kg body weight, caudal vein): 3.7 ± 0.4
- Behavioral score ([3]; embolus rat, dose 300 μg per kg body weight, caudal vein): 4.2 ± 0.5

SMILES: CC[n+]1ccccc1/C=C/c1ccc(N(C)C)cc1 [NK-557]
- Behavioral score [3, 5]: 2.9 ± 0.3

SMILES: CCCN1C=CC(=CC=C(C=Cc2cc[n+](CCC)c3ccccc23)c2cc[n+](CCC)c3ccccc23)c2ccccc21.[I-].[I-] [NK-234]
- suppressing hydrogen peroxide disorder [1]: actions of suppressing
- adverse effect [2]: No adverse effect
- novelty object recognition test (in words) [2, 4]: significant improvement
- Index for object discrimination ([2]; dose 500 μg/kg body weight): 0.29 ± 0.07

SMILES: CCN1/C(=C/C=C(/C=C/c2sc3ccccc3[n+]2CC)c2sc3ccccc3[n+]2CC)Sc2ccccc21.[I-].[I-] [NK-100]
- Behavioral score [3, 5]: 2.4 ± 0.2

SMILES: CCCCN1C=C/C(=C/C=C(/C=C/c2cc[n+](CCCC)c3ccccc23)c2cc[n+](CCCC)c3ccccc23)c2ccccc21 [NK-26]
- suppressing hydrogen peroxide disorder [1]: actions of suppressing
- adverse effect [2]: No adverse effect
- novelty object recognition test (in words) ([2]; 50 μg/kg body weight i.p. once a day): significant improvement
- Index for object discrimination ([2]; dose 5 μg/kg body weight): 0.05 ± 0.08
- Index for object discrimination ([2]; dose 50 μg/kg body weight): 0.19 ± 0.07
- Index for object discrimination ([2]; dose 500 μg/kg body weight): 0.11 ± 0.08
- behavioral score (in words) [3]: significantly improved
- Behavioral score ([3]; embolus rat, dose 1 μg per kg body weight, caudal vein): 4.4 ± 0.4
- Behavioral score ([3]; embolus rat, dose 10 μg per kg body weight, caudal vein): 3.44 ± 0.6
- Behavioral score [3, 6]: 4.3 ± 0.4

— patent US20120035187A1 (priority 2009, published 2012)
